Reference: US12454510B2, “Isophthalamide compound and use thereof” (METISA BIOTECHNOLOGY CO., LTD, priority 2019, dated 2025)

Tests used:
Assay type in all cases: in vivo
[1] = system: Plutella xylostella; assay: Insecticidal activity against Plutella xylostella, airbrush spray on cabbage leaf discs; conditions: foliar, 72 h, 3 days after the treatment, 3rd instar larvae, read-out: lethality rate against Plutella xylostella; for pest or weed control at 0.05 µg/mL: dose 0.05 mg/L; for pest or weed control at 0.5 µg/mL: dose 0.5 mg/L; for pest or weed control at 1 µg/mL: dose 1 mg/L
Protocol: (§1) After being dissolved in a mixed solvent of acetone/methanol (1:1), the test compound was diluted with water containing 0.1% (wt) Tween 80 to the desired concentration.
(§2) With Leucania separata, Plutella xylostella, and Chilo suppressalis as targets, airbrush spray method was used for the determination of the insecticidal activity.
(§3) Determination method: Cabbage leaves were punched into leaf discs with a diameter of 2 cm with a puncher, and Airbrush spray treatment was carried out at a pressure of 10 psi (approximately 0.7 kg/cm^2) on the front and back sides of each leaf disc, with a spray volume of the compound to be tested of 0.5 ml. After drying in the shade, 10 of 3rd instar larvae were introduced for each treatment, and each treatment was repeated 3 times for. After the treatment, it was placed in an observation room at 25° C. and a relative humidity of 60-70%, and 3 days after the treatment, the number of surviving insects was investigated, and the mortality rate was calculated.

[2] = system: Leucania separata; assay: Insecticidal activity against Leucania separata, airbrush spray on corn leaf sections; conditions: Mythimna separata, 72 h; dose 0.05 mg/L, 3 days after the treatment, 3rd instar larvae; read-out: lethality rate against Leucania separata
Protocol: as §1, §2
as §3, with “Corn” for “Cabbage”, “cut” for “punched”, “into” for “into leaf discs with a diameter of”, “leaf sections,” for “with a puncher,”, “section,” for “disc,”, “times.” for “times for.”

[3] = system: Chilo suppressalis; assay: Insecticidal activity against Chilo suppressalis, sprayed Oryza sativa seedlings/stalks; conditions: Chilo suppressalis, 72 h, 3 days after the treatment, 3rd instar larvae, read-out: lethality rate against Chilo suppressalis; for pest or weed control at 0.25 µg/mL: dose 0.25 mg/L; for pest or weed control at 0.5 µg/mL: dose 0.5 mg/L; for pest or weed control at 1 µg/mL: dose 1 mg/L
Protocol: as §1, §2
Determination method: 1) Preparation of Oryza sativa seedlings: Oryza sativa was cultivated in a constant temperature room (a temperature of 26-28V, a relative humidity of about 60-80%, and a light illumination of 16 hL:8 hD) in a small plastic cup with a diameter of 4.5 cm and a height of 4 cm, and when the Oryza sativa grew up to the 4-5 leaf stage, robust and consistent Oryza sativa seedlings were selected for chemical treatment, and 3 repetitions were performed for each treatment. 2) Preparation for test insects: Chilo suppressalis at 3rd instar larvae were raised continuously indoors. 3) The Oryza sativa stems were sprayed and insects were introduced. Spraying was performed uniformly on the whole plant of the Oryza sativa seedlings, with 15 ml of compound solution for each treatment. The blank control was treated first, and then the above operations were repeated in the order of the test concentration from low to high. After the Oryza sativa seedlings were sprayed, they were placed in a cool place to dry the liquid, and about 5 cm of stalks at the base of the stems were cut and fed to the test insects. A glass petri dish with a diameter of 90 mm was placed with filter paper at the bottom of the dish, and then was moisturized by adding water. After that, about 5 rice stalks and 10 larvae were placed in each dish, and the petri dish was sealed with a non-woven fabric and placed in a constant temperature room for cultivation. The number of remaining live insects was investigated 3 days after the treatment.

N#CCN(C(=O)c1ccc(F)nc1)c1cccc(C(=O)Nc2c(I)cc(C(F)(C(F)(F)F)C(F)(F)F)cc2C(F)(F)F)c1F [Compound 13]
≥ 90%: pest or weed control at 0.05 µg/mL [1] | pest or weed control at 0.5 µg/mL [1] | pest or weed control at 1 µg/mL [1] | pest or weed control at 0.05 µg/mL [2] | pest or weed control at 0.25 µg/mL [3] | pest or weed control at 0.5 µg/mL [3] | pest or weed control at 1 µg/mL [3]

N#CCCN(C(=O)c1ccc(F)nc1)c1cccc(C(=O)Nc2c(Br)cc(C(F)(C(F)(F)F)C(F)(F)F)cc2I)c1F [Compound 6]
≥ 90%: pest or weed control at 1 µg/mL [1] | pest or weed control at 0.05 µg/mL [2] | pest or weed control at 1 µg/mL [3]

N#CCN(C(=O)c1ccc(C(F)(F)F)nc1)c1cccc(C(=O)Nc2c(Br)cc(C(F)(C(F)(F)F)C(F)(F)F)cc2C(F)(F)F)c1F [Compound 25]
≥ 90%: pest or weed control at 0.5 µg/mL [1] | pest or weed control at 1 µg/mL [1] | pest or weed control at 0.05 µg/mL [2] | pest or weed control at 0.25 µg/mL [3] | pest or weed control at 0.5 µg/mL [3] | pest or weed control at 1 µg/mL [3]

N#CCCCCN(C(=O)c1ccc(F)nc1)c1cccc(C(=O)Nc2c(Br)cc(C(F)(C(F)(F)F)C(F)(F)F)cc2Br)c1F [Compound 4]
≥ 90%: pest or weed control at 1 µg/mL [1] | pest or weed control at 0.05 µg/mL [2] | pest or weed control at 1 µg/mL [3]

N#CCCN(C(=O)c1ccc(F)nc1)c1cccc(C(=O)Nc2c(I)cc(C(F)(C(F)(F)F)C(F)(F)F)cc2C(F)(F)F)c1F [Compound 14]
≥ 90%: pest or weed control at 0.05 µg/mL [1] | pest or weed control at 0.5 µg/mL [1] | pest or weed control at 1 µg/mL [1] | pest or weed control at 0.05 µg/mL [2] | pest or weed control at 0.25 µg/mL [3] | pest or weed control at 0.5 µg/mL [3] | pest or weed control at 1 µg/mL [3]

N#CCN(C(=O)c1ccc(F)nc1)c1cccc(C(=O)Nc2c(Br)cc(C(F)(C(F)(F)F)C(F)(F)F)cc2I)c1F [Compound 5]
≥ 90%: pest or weed control at 1 µg/mL [1] | pest or weed control at 0.05 µg/mL [2] | pest or weed control at 1 µg/mL [3]
